Test results published in patent publication US8088761B2, “Enzyme inhibitors” (Cancer Research Technology Limited, priority 2005, dated 2012).
Read-outs that look alike come from different tables or passages of the source.

Experiments:
Aurora-A = target: T1, Aurora-A (Homo sapiens, UniProt O14965); test: Flashplate Aurora A enzyme inhibition assay; type: biochemical; conditions: read-out: Aurora-A inhibition
T1 sequence (O14965 1-403): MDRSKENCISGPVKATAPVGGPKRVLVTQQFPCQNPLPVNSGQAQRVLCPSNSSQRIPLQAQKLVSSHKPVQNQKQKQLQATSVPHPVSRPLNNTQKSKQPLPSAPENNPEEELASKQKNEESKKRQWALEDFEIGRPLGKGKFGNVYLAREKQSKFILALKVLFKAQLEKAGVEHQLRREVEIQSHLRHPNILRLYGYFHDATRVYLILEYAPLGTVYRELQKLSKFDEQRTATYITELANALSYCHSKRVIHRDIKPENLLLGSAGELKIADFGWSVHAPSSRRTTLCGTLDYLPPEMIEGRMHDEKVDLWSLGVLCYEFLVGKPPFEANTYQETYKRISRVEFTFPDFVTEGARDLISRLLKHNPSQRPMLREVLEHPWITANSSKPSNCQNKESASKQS
Method in brief: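 This is a radiometric Flashplate format: plates were precoated with DTT, and compound (in 2% DMSO) was mixed with kinase buffer (pH 7.5 Tris, MgCl2, NaCl) containing 1 mM MBP, 20 μM ATP and ^33P-ATP. The reaction was started with 250 ng Aurora-A per well and incubated 2 h at RT. It was then stopped by 10 mM sodium pyrophosphate washing, and plates were scintillation-counted.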

HCT116 cells = test: Cell viability assay (MTT) in HCT116 cell line; type: cell-based; conditions: Homo sapiens, HCT-116, 72 hrs, IC50 range, read-out: HCT116 cell growth inhibition
Method in brief: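 MTT read-out (4 hrs, 37 °C, DMSO extraction) following 72 hrs of treatment with 0-50 μM Aurora inhibitor. HCT116 cells were plated a day earlier and tested in triplicate; IC50 derived from the curve.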

IC50 (Aurora-A; Flashplate assay, IC50 range) [nM] | IC50 (HCT116 cells) [nM] | Structure (SMILES) | IC50 (Aurora-A) [nM]
< 500 | 500 to 2000 | Fc1ccc(CN2CCN(c3c(Br)cnc4[nH]c(-c5ccc(CN6CCOCC6)cc5)nc34)CC2)cc1 [Example 148, 4-(4-(6-Bromo-7-(4-(4-fluorobenzyl)piperazin-1-yl)-3H-imidazo[4,5-b]pyridin-2-yl)benzyl)morpholine] | 
< 500 | < 500 | Brc1cnc2[nH]c(-c3ccc(CN4CCOCC4)cc3)nc2c1N1CCN(CC2CCC2)CC1 [Example 150, 4-(4-(6-Bromo-7-(4-(cyclobutylmethyl)piperazin-1-yl)-3H-imidazo[4,5-b]pyridin-2-yl)benzyl)morpholine] | 
< 500 | 500 to 2000 | Brc1cnc2[nH]c(-c3ccc(CN4CCOCC4)cc3)nc2c1N1CCN(Cc2nccs2)CC1 [Example 152, 4-(4-(6-Bromo-7-(4-(thiazol-2-ylmethyl)piperazin-1-yl)-3H-imidazo[4,5-b]pyridin-2-yl)benzyl)morpholine] | 
< 500 | 2000 to 50000 | CC(C)c1nc(CN2CCN(c3c(Br)cnc4[nH]c(-c5ccc(CN6CCOCC6)cc5)nc34)CC2)cs1 [Example 155, 4-(4-(6-Bromo-7-(4-((2-isopropylthiazol-4-yl)methyl)piperazin-1-yl)-3H-imidazo[4,5-b]pyridin-2-yl)benzyl)morpholine] | 
< 500 | < 500 | Cc1nc(CN2CCN(c3c(Br)cnc4[nH]c(-c5ccc(CN6CCOCC6)cc5)nc34)CC2)cs1 [Example 156, 4-(4-(6-Bromo-7-(4-((2-methylthiazol-4-yl)methyl)piperazin-1-yl)-3H-imidazo[4,5-b]pyridin-2-yl)benzyl)morpholine] | 
< 500 | 500 to 2000 | Cc1nc(CN2CCN(c3c(Br)cnc4[nH]c(-c5ccc(N6CCOCC6)cc5)nc34)CC2)cs1 [Example 159, 4-(4-(6-Bromo-7-(4-((2-methylthiazol-4-yl)methyl)piperazin-1-yl)-3H-imidazo[4,5-b]pyridin-2-yl)phenyl)morpholine] | 
< 500 | < 500 | Brc1cnc2[nH]c(-c3ccc(CN4CCOCC4)cc3)nc2c1N1CCN(Cc2cscn2)CC1 [Example 160, 4-(4-(6-Bromo-7-(4-(thiazol-4-ylmethyl)piperazin-1-yl)-3H-imidazo[4,5-b]pyridin-2-yl)benzyl)morpholine] | 
< 500 | 2000 to 50000 | Cc1nc(CN2CCN(c3c(Br)cnc4[nH]c(-c5ccc(-n6cccn6)cc5)nc34)CC2)cs1 [Example 161, 4-((4-(2-(4-(1H-Pyrazol-1-yl)phenyl)-6-bromo-3H-imidazo[4,5-b]pyridin-7-yl)piperazin-1-yl)methyl)-2-methylthiazole] | 
< 500 | < 500 | Cc1nc(CN2CCN(c3c(Br)cnc4[nH]c(-c5ccc(N6CCNCC6)cc5)nc34)CC2)cs1 [Example 163, 4-((4-(6-Bromo-2-(4-(piperazin-1-yl)phenyl)-3H-imidazo[4,5-b]pyridin-7-yl)piperazin-1-yl)methyl)-2-methylthiazole] | 
< 500 | < 500 | Cc1nc(CN2CCN(c3c(Br)cnc4[nH]c(-c5ccc(CN6CCNCC6)cc5)nc34)CC2)cs1 [Example 164, 4-((4-(6-Bromo-2-(4-(piperazin-1-ylmethyl)phenyl)-3H-imidazo[4,5-b]pyridin-7-yl)piperazin-1-yl)methyl)-2-methylthiazole] | 
< 500 | 500 to 2000 | COc1ccc(-c2nc3c(N4CCN(Cc5nccn5C)CC4)c(Br)cnc3[nH]2)cc1 [Example 167, 6-Bromo-2-(4-methoxyphenyl)-7-(4-((1-methyl-1H-imidazol-2-yl)methyl)piperazin-1-yl)-3H-imidazo[4,5-b]pyridine] | 
< 500 | 500 to 2000 | Cn1cncc1CN1CCN(c2c(Br)cnc3[nH]c(-c4ccc(CN5CCOCC5)cc4)nc23)CC1 [Example 169, 4-(4-(6-Bromo-7-(4-((1-methyl-1H-imidazol-5-yl)methyl)piperazin-1-yl)-3H-imidazo[4,5-b]pyridin-2-yl)benzyl)morpholine] | 
< 500 | 500 to 2000 | Brc1cnc2[nH]c(-c3ccc(CN4CCOCC4)cc3)nc2c1N1CCN(Cc2cncs2)CC1 [Example 171, 4-(4-(6-Bromo-7-(4-(thiazol-5-ylmethyl)piperazin-1-yl)-3H-imidazo[4,5-b]pyridin-2-yl)benzyl)morpholine] | 
< 500 | < 500 | Cc1nc(CN2CCN(c3c(Cl)cnc4[nH]c(-c5ccc(Cn6cccn6)cc5)nc34)CC2)cs1 [Example 173, 4-((4-(2-(4-((1H-Pyrazol-1-yl)methyl)phenyl)-6-chloro-3H-imidazo[4,5-b]pyridin-7-yl)piperazin-1-yl)methyl)-2-methylthiazole] | 
< 500 | < 500 | Cc1nc(CN2CCN(c3c(Cl)cnc4[nH]c(-c5ccc(CN6CCNCC6)cc5)nc34)CC2)cs1 [Example 175, 4-((4-(6-Chloro-2-(4-(piperazin-1-ylmethyl)phenyl)-3H-imidazo[4,5-b]pyridin-7-yl)piperazin-1-yl)methyl)-2-methylthiazole] | 
< 500 | 500 to 2000 | Brc1cnc2[nH]c(-c3ccc(CN4CCNCC4)cc3)nc2c1N1CCN(Cc2cscn2)CC1 [Example 179, 4-((4-(6-Bromo-2-(4-(piperazin-1-ylmethyl)phenyl)-3H-imidazo[4,5-b]pyridin-7-yl)piperazin-1-yl)methyl)thiazole] | 
< 500 | 2000 to 50000 | Cn1cncc1CN1CCN(c2c(Br)cnc3[nH]c(-c4ccc(CN5CCNCC5)cc4)nc23)CC1 [Example 181, 6-bromo-7-(4-((1-methyl-1H-imidazol-5-yl)methyl)piperazin-1-yl)-2-(4-(piperazin-1-ylmethyl)phenyl)-3H-imidazo[4,5-b]pyridine] | 

Structure (SMILES) | IC50 (Aurora-A; Flashplate assay, IC50 range) [nM] | IC50 (HCT116 cells) [nM] | IC50 (Aurora-A) [nM]
COc1ccc(-c2nc3c(N4CCN(Cc5coc(C(C)C)n5)CC4)c(Br)cnc3[nH]2)cc1 [Example 145, 4-((4-(6-bromo-2-(4-methoxyphenyl)-3H-imidazo[4,5-b]pyridin-7-yl)piperazin-1-yl)methyl)-2-isopropyloxazole] | < 500 | < 500 | 
COc1ccc(-c2nc3c(N4CCN(Cc5ccc(F)cc5)CC4)c(Br)cnc3[nH]2)cc1 [Example 147, 6-Bromo-7-(4-(4-fluorobenzyl)piperazin-1-yl)-2-(4-methoxyphenyl)-3H-imidazo[4,5-b]pyridine] | < 500 | 2000 to 50000 | 
COc1ccc(-c2nc3c(N4CCN(CC5CCC5)CC4)c(Br)cnc3[nH]2)cc1 [Example 149, 6-Bromo-7-(4-(cyclobutylmethyl)piperazin-1-yl)-2-(4-methoxyphenyl)-3H-imidazo[4,5-b]pyridine] | < 500 | < 500 | 
COc1ccc(-c2nc3c(N4CCN(Cc5cscn5)CC4)c(Br)cnc3[nH]2)cc1 [Example 154, 4-((4-(6-Bromo-2-(4-methoxyphenyl)-3H-imidazo[4,5-b]pyridin-7-yl)piperazin-1-yl)methyl)thiazole] |  | < 500 | < 500
COc1ccc(-c2nc3c(N4CCN(Cc5cncn5C)CC4)c(Br)cnc3[nH]2)cc1 [Example 165, 6-Bromo-2-(4-methoxyphenyl)-7-(4-((1-methyl-1H-imidazol-5-yl)methyl)piperazin-1-yl)-3H-imidazo[4,5-b]pyridine] | < 500 | 500 to 2000 | 
Cn1ccnc1CN1CCN(c2c(Br)cnc3[nH]c(-c4ccc(CN5CCOCC5)cc4)nc23)CC1 [Example 166, 4-(4-(6-Bromo-7-(4-((1-methyl-1H-imidazol-2-yl)methyl)piperazin-1-yl)-3H-imidazo[4,5-b]pyridin-2-yl)benzyl)morpholine] | < 500 | 500 to 2000 | 
COc1ccc(-c2nc3c(N4CCN(Cc5cn(C)cn5)CC4)c(Br)cnc3[nH]2)cc1 [Example 168, 6-Bromo-2-(4-methoxyphenyl)-7-(4-((1-methyl-1H-imidazol-4-yl)methyl)piperazin-1-yl)-3H-imidazo[4,5-b]pyridine] | < 500 | 2000 to 50000 | 
COc1ccc(-c2nc3c(N4CCN(Cc5cncs5)CC4)c(Br)cnc3[nH]2)cc1 [Example 170, 5-((4-(6-Bromo-2-(4-methoxyphenyl)-3H-imidazo[4,5-b]pyridin-7-yl)piperazin-1-yl)methyl)thiazole] | < 500 | 500 to 2000 | 
Cc1nc(CN2CCN(c3c(Cl)cnc4[nH]c(-c5ccc(CN6CCOCC6)cc5)nc34)CC2)cs1 [Example 172, 4-(4-(6-Chloro-7-(4-((2-methylthiazol-4-yl)methyl)piperazin-1-yl)-3H-imidazo[4,5-b]pyridin-2-yl)benzyl)morpholine] | < 500 | 500 to 2000 | 
CN(C)c1ccc(-c2nc3c(N4CCN(CCc5ccccc5)CC4)c(Cl)cnc3[nH]2)cc1 [Example 176, 4-(6-Chloro-7-(4-phenethylpiperazin-1-yl)-3H-imidazo[4,5-b]pyridin-2-yl)-N,N-dimethylaniline] | 500 to 2000 | 2000 to 50000 | 
Clc1cnc2[nH]c(-c3ccc(CN4CCOCC4)cc3)nc2c1N1CCN(Cc2cscn2)CC1 [Example 177, 4-(4-(6-Chloro-7-(4-(thiazol-4-ylmethyl)piperazin-1-yl)-3H-imidazo[4,5-b]pyridin-2-yl)benzyl)morpholine] | < 500 | 500 to 2000 | 
